Measured values as given in the supplement of paper PMC10331698.
± gives the standard deviation of the averaged measurements.

Assays:
Test in all cases: LOEC (log10 uM (lowest observed effect concentration))
[1] = compound: OCCCC(F)(F)C(F)(F)C(F)(F)C(F)(F)C(F)(F)C(F)(F)C(F)(F)F [7:3 Fluorotelomer alcohol]
Procedure: (§1)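 BioMAP Diversity Plus panel in human primary cell co-cultures, 4 concentrations in duplicate blinded samples. Responses are log10 fold change versus DMSO control, processed with tcpl v2.1.0. A hit is called when responses at any concentration exceed the cutoff (the larger of 3*bmad or log10(1.2)); the lowest observed effect concentration (modl_ga, log10 uM) is reported for hits.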

[2] = compound: OCCC(F)(F)C(F)(F)C(F)(F)C(F)(F)C(F)(F)C(F)(F)F [6:2 Fluorotelomer alcohol]
Procedure: as §1

[3] = compound: CCN(CCO)S(=O)(=O)C(F)(F)C(F)(F)C(F)(F)C(F)(F)C(F)(F)C(F)(F)C(F)(F)C(F)(F)F [N-Ethyl-N-(2-hydroxyethyl)perfluorooctanesulfonamide]
Procedure: as §1

Perfluorodecanoic acid = compound: O=C(O)C(F)(F)C(F)(F)C(F)(F)C(F)(F)C(F)(F)C(F)(F)C(F)(F)C(F)(F)C(F)(F)F [Perfluorodecanoic acid]
Procedure: as §1

[4] = compound: C[N+](C)(C)CCCNS(=O)(=O)C(F)(F)C(F)(F)C(F)(F)C(F)(F)C(F)(F)C(F)(F)C(F)(F)C(F)(F)F [Perfluorooctanesulfonamido ammonium iodide]
Procedure: as §1

Test System | LOEC (log10 uM) [1] | LOEC (log10 uM) [2] | LOEC (log10 uM) [3] | LOEC (log10 uM) (Perfluorodecanoic acid) | LOEC (log10 uM) [4]
hDFCGF CollagenI down | 1.3 | 1.78 |  |  | 
MyoF IL8 down |  |  | 0.845 |  | 
SAg Eselectin down | 1.78 |  |  | 1.78 | 
BE3C ITAC down | 1.78 |  | 1.78 | 1.3 | 
3C VCAM1 down | 1.3 |  |  | 1.78 | 
KF3CT MMP9 down | 1.3 |  | 1.54 ± 0.34 | 1.07 ± 0.32 | 1.78
BF4T MMP9 down | 1.78 |  |  | 1.3 | 1.78
KF3CT MIG down | 1.54 ± 0.34 |  | 1.78 | 1.78 | 
CASM3C HLADR down | 1.54 ± 0.34 |  | 1.54 ± 0.34 |  | 
4H VCAM1 down | 1.78 |  |  | 1.78 | 
3C MIG down | 1.78 | 1.78 |  | 1.78 | 
LPS Thrombomodulin down | 1.78 |  |  | 1.78 | 
IMphg MIP1a up | 1.78 |  | 1.3 |  | 
LPS Eselectin down | 1.78 |  |  | 1.78 | 
BE3C ICAM1 down | 1.78 |  |  | 1.3 | 
CASM3C LDLR down | 1.78 |  | 1.07 ± 0.32 |  | 
KF3CT SRB down | 1.54 ± 0.34 |  |  | 1.78 | 1.78
KF3CT IL1a down | 1.54 ± 0.34 |  | 1.3 | 1.78 | 
BF4T uPA down | 1.78 |  |  | 1.3 | 
CASM3C MCP1 down | 1.3 |  |  |  | 
BT xIL6 down | 1.3 |  | 1.78 |  | 
BF4T IL8 down | 1.78 |  |  |  | 
BE3C tPA down | 1.78 |  |  | 1.3 | 1.78
BE3C PAI1 down | 1.78 |  | 1.78 | 1.3 | 
3C ICAM1 down | 1.78 | 1.78 |  | 1.78 | 
KF3CT IL8 down | 1.78 |  | 0.845 |  | 

Test System | LOEC (log10 uM) [1] | LOEC (log10 uM) [2] | LOEC (log10 uM) [3] | LOEC (log10 uM) (Perfluorodecanoic acid) | LOEC (log10 uM) [4]
IMphg MIP1a down |  |  |  | 1.78 | 1.78
IMphg ESelectin up |  |  | 0.845 |  | 
SAg CD69 down | 1.78 |  | 1.54 ± 0.34 | 1.78 | 
hDFCGF TIMP2 down | 1.3 | 1.78 |  | 1.3 | 
3C IL8 down | 1.78 |  |  | 1.78 | 1.78
SAg SRB down | 1.78 |  | 1.3 | 1.78 | 1.78
LPS SRB down | 1.78 |  | 1.54 ± 0.34 | 1.78 | 1.78
hDFCGF MCP1 down | 1.3 | 1.78 | 1.3 | 1.78 | 1.78
IMphg SRB down | 1.78 |  | 1.78 | 1.78 | 1.78
LPS Thrombomodulin up |  |  | 0.573 ± 0.39 |  | 
CASM3C SAA down | 1.78 |  |  |  | 
BT Bcell Proliferation down | 1.3 |  | 1.54 ± 0.34 |  | 
4H VEGFRII up |  |  |  |  | 1.78
4H Eotaxin3 down | 1.54 ± 0.34 |  | 1.54 ± 0.34 | 1.78 | 1.78
LPS IL1a down |  |  | 1.3 | 1.78 | 1.54 ± 0.34
BE3C IL1a down | 1.78 |  | 1.54 ± 0.34 | 1.3 | 
3C Thrombomodulin up |  |  | 1.3 |  | 
CASM3C IL6 down | 1.78 |  |  |  | 
IMphg MCP1 down | 1.78 |  |  | 1.78 | 
CASM3C LDLR up |  |  |  |  | 1.54 ± 0.34
hDFCGF ICAM1 down | 1.3 | 1.78 |  | 1.78 | 
LPS TissueFactor up |  |  | 1.07 ± 0.32 |  | 
BF4T IL1a down | 1.78 |  |  | 1.54 ± 0.34 | 1.78
3C TissueFactor up |  |  |  |  | 1.78
IMphg CD69 down |  |  | 1.3 | 1.78 | 1.3
hDFCGF MCSF up |  |  |  |  | 1.78

Test System | LOEC (log10 uM) [1] | LOEC (log10 uM) [2] | LOEC (log10 uM) [3] | LOEC (log10 uM) (Perfluorodecanoic acid) | LOEC (log10 uM) [4]
CASM3C SRB down | 1.54 ± 0.34 |  | 1.3 |  | 
KF3CT TIMP2 down | 1.3 |  |  | 1.78 | 
BF4T MMP1 down |  |  |  | 1.3 | 
hDFCGF MIG down | 1.3 | 1.78 | 1.3 | 1.07 ± 0.32 | 
hDFCGF EGFR down | 1.3 |  |  |  | 
hDFCGF SRB down | 1.3 | 1.78 | 0.573 ± 0.39 | 1.78 | 1.78
BT xIL2 down | 1.3 |  | 1.3 |  | 1.78
LPS TNFa down | 1.54 ± 0.34 |  |  | 1.78 | 1.3
MyoF Decorin down | 1.78 |  |  | 1.78 | 
KF3CT PAI1 down | 1.3 |  | 0.845 | 1.3 | 1.78
KF3CT IP10 down | 1.54 ± 0.34 |  | 1.3 | 1.3 | 1.78
BT PBMCCytotoxicity down | 1.3 | 1.78 |  |  | 
LPS IL8 down | 1.78 |  |  | 1.78 | 1.3
hDFCGF TIMP2 up |  |  | 0.845 |  | 1.07 ± 0.32
KF3CT MCP1 down | 1.54 ± 0.34 |  |  | 1.07 ± 0.32 | 
SAg CD38 down | 1.54 ± 0.34 |  | 1.3 | 1.78 | 
MyoF CollagenIV down | 1.78 |  |  |  | 
CASM3C MIG down | 1.3 |  | 1.3 |  | 
BF4T VCAM1 down | 1.78 |  |  | 1.3 | 
LPS PGE2 down |  |  |  | 1.78 | 1.3
SAg MIG down | 1.78 |  |  | 1.78 | 
BT sIgG down | 1.54 ± 0.34 |  | 1.3 |  | 1.78
4H MCP1 down | 1.78 |  |  | 1.78 | 
CASM3C PAI1 down | 1.78 |  |  |  | 
IMphg IL8 down |  |  |  |  | 1.54 ± 0.34
3C Eselectin down | 1.54 ± 0.34 |  |  | 1.78 | 

Test System | LOEC (log10 uM) [1] | LOEC (log10 uM) [2] | LOEC (log10 uM) [3] | LOEC (log10 uM) (Perfluorodecanoic acid) | LOEC (log10 uM) [4]
BT xTNFa down | 1.3 | 1.78 | 1.3 |  | 1.54 ± 0.34
3C MCP1 down | 1.54 ± 0.34 | 1.78 | 1.3 | 1.78 | 
BE3C uPAR down | 1.78 |  | 1.78 | 1.3 | 
CASM3C Thrombomodulin up |  |  | 1.3 |  | 
LPS VCAM1 down | 1.54 ± 0.34 |  | 1.78 | 1.78 | 1.78
LPS MCSF down | 1.78 |  |  | 1.78 | 1.78
BE3C MMP1 down | 1.78 |  |  | 1.3 | 
MyoF TIMP1 down | 1.78 |  |  | 1.78 | 
BF4T MMP3 up |  |  | 1.78 |  | 1.78
LPS CD69 down | 1.78 |  | 0.845 | 1.78 | 
3C HLADR down | 1.54 ± 0.34 | 1.78 | 1.78 | 1.78 | 
CASM3C uPAR down | 1.78 |  | 1.54 ± 0.34 |  | 
BE3C MIG down | 1.78 |  | 1.78 | 1.3 | 
SAg MCP1 down | 1.54 ± 0.34 |  | 1.54 ± 0.34 | 1.78 | 
BE3C IL8 down | 1.78 |  | 1.3 | 1.3 | 1.54 ± 0.34
BF4T SRB down | 1.78 |  |  | 1.3 | 
BE3C MMP9 down | 1.78 |  | 1.54 ± 0.34 | 1.3 | 
BF4T Keratin818 down | 1.78 |  |  | 1.3 | 1.78
IMphg ESelectin down |  |  |  | 1.78 | 
BF4T MMP3 down | 1.78 |  |  | 1.54 ± 0.34 | 
3C uPAR down | 1.78 | 1.78 |  | 1.78 | 
BE3C EGFR down | 1.78 |  | 1.78 |  | 
4H Pselectin down | 1.78 |  | 1.54 ± 0.34 | 1.78 | 1.78
BT xIL17A down | 1.3 |  | 1.3 |  | 1.78
IMphg SRB.Mphg down |  |  |  | 1.78 | 1.04 ± 1
LPS TissueFactor down | 1.78 |  |  | 1.78 | 

Test System | LOEC (log10 uM) [1] | LOEC (log10 uM) [2] | LOEC (log10 uM) [3] | LOEC (log10 uM) (Perfluorodecanoic acid) | LOEC (log10 uM) [4]
MyoF bFGF down | 1.78 |  |  | 1.78 | 1.78
BF4T CD90 down | 1.78 |  |  | 1.3 | 
LPS MCP1 down | 1.54 ± 0.34 |  | 1.78 | 1.78 | 
MyoF Decorin up |  |  |  |  | 1.07 ± 0.32
hDFCGF TIMP1 down | 1.3 | 1.78 |  | 1.78 | 
BF4T tPA up |  |  | 1.78 |  | 
IMphg VCAM1 down |  |  |  | 1.78 | 1.54 ± 0.34
KF3CT uPA down | 1.54 ± 0.34 |  | 1.78 | 1.78 | 
BE3C uPA down | 1.78 |  | 1.78 | 1.3 | 
BE3C Keratin818 down | 1.78 |  |  | 1.3 | 
LPS CD40 down | 1.78 | 1.78 |  | 1.78 | 1.78
SAg CD40 down | 1.78 |  | 1.78 | 1.78 | 1.78
SAg IL8 down | 1.54 ± 0.34 |  |  | 1.78 | 
3C TissueFactor down | 1.54 ± 0.34 | 1.78 |  | 1.78 | 
CASM3C MCSF down | 1.54 ± 0.34 |  |  |  | 
hDFCGF IL8 down | 1.3 | 1.78 |  | 1.78 | 1.78
SAg PBMCCytotoxicity down | 1.3 | 1.78 | 1.54 ± 0.34 | 1.78 | 
4H uPAR down | 1.78 |  |  | 1.78 | 
hDFCGF CollagenIII down | 1.3 |  |  | 1.78 | 1.07 ± 0.32
BE3C SRB down | 1.78 |  | 1.78 | 1.3 | 
4H SRB down | 1.78 |  | 1.54 ± 0.34 | 1.78 | 
CASM3C VCAM1 down | 1.3 |  | 1.07 ± 0.32 | 1.78 | 
4H VEGFRII down | 1.78 |  |  | 1.78 | 
KF3CT ICAM1 down | 1.54 ± 0.34 |  |  | 1.78 | 
